According to patent US9765035B2 (priority 2013, dated 2017):
Like-named read-outs stand apart in the source and are kept apart here.

Target: human PRMT6 (Homo sapiens, UniProt Q96LA8)
Assay: biochemical
Description: General Materials. S-adenosylmethionine (SAM), S-adenosylhomocysteine (SAH), bicine, Tween20, dimethylsulfoxide (DMSO), bovine skin gelatin (BSG), sodium butyrate and Tris(2-carboxyethyl)phosphine hydrochloride solution (TCEP) were purchased from Sigma-Aldrich at the highest level of purity possible. ^3H-SAM was purchase from American Radiolabeled Chemicals with a specific activity of 80 Ci/mmol. 384-well streptavidin Flashplates were purchased from PerkinElmer.
Substrates. Peptide representative of human histone H4 residues 36-50 was synthesized with an N-terminal linker-affinity tag motif and a C-terminal amide cap by 21st Century Biochemicals. The peptide was purified by high-performance liquid chromatography (HPLC) to greater than 95% purity and confirmed by liquid chromatography mass spectrometry (LC-MS). The sequence was Biot-Ahx-[…]-amide and contained a monomethylated lysine at position 44 (SEQ ID NO.:5).
Molecular Biology: Full-length human PRMT6 (NM_018137.2) transcript clone was amplified from an HEK 293 cDNA library, incorporating a flanking 5′ sequence encoding a FLAG tag ([…]) (SEQ ID NO.:6) fused directly to Ser 2 of PRMT6 and a 3′ sequence encoding a hexa His sequence (HHHHHH) (SEQ ID NO.: 17) fused directly to Asp 375. The amplified gene was subcloned into pFastBacMam (Viva Biotech).
Protein Expression. Recombinant baculovirus were generated according to Bac-to-Bac kit instructions (Life Technologies). […] Infections were carried out at 37° C. for 48 hours, harvested by centrifugation, and stored at −80° C. for purification.
Protein Purification. […] Column was washed with 20 mM imidazole in the same buffer and Flag-PRMT6-His was eluted with 150 mM imidazole. Pooled fractions were dialysed against buffer Ni-A and further purified by anti-flag M2 affinity chromatography. Flag-PRMT6-His was eluted with 200 ug/ml FLAG peptide in the same buffer. Pooled fractions were dialysed in 20 mM Tris, 150 mM NaCl, 10% glycerol and 5 mM β-mercaptoethanol, pH 7.8. The purity of recovered protein was 95%.
General Procedure for PRMT6 Enzyme Assays on Peptide Substrates. The assays were all performed in a buffer consisting of 20 mM Bicine (pH=7.6), 1 mM TCEP, 0.005% BSG, and 0.002% Tween 20, prepared on the day of use. Compounds in 100% DMSO (1 ul) were spotted into a polypropylene 384-well V-bottom plates (Greiner) using a Platemate Plus outfitted with a 384-channel head (Thermo Scientific). DMSO (1 ul) was added to Columns 11, 12, 23, 24, rows A-H for the maximum signal control and 1 ul of SAH, a known product and inhibitor of PRMT6, was added to columns 11, 12, 23, 24, rows I-P for the minimum signal control. A cocktail (40 ul) containing the PRMT6 enzyme was added by Multidrop Combi (Thermo-Fisher). The compounds were allowed to incubate with PRMT6 for 30 min at room temperature, then a cocktail (10 ul) containing SAM and peptide was added to initiate the reaction (final volume=51 ul). The final concentrations of the components were as follows: PRMT6 was 1 nM, ^3H-SAM was 200 nM, non-radiolabeled SAM was 250 nM, peptide was 75 nM, SAH in the minimum signal control wells was 1 mM, and the DMSO concentration was 2%. The assays were stopped by the addition of non-radiolabeled SAM (10 ul) to a final concentration of 400 uM, which dilutes the ^3H-SAM to a level where its incorporation into the peptide substrate is no longer detectable. 50 ul of the reaction in the 384-well polypropylene plate was then transferred to a 384-well Flashplate and the biotinylated peptides were allowed to bind to the streptavidin surface for at least 1 hour before being washed once with 0.1% Tween20 in a Biotek EL×405 plate washer. The plates were then read in a PerkinElmer TopCount plate reader to measure the quantity of ^3H-labeled peptide bound to the Flashplate surface, measured as disintegrations per minute (dpm) or alternatively, referred to as counts per minute (cpm). […]

[1] = biochemical evaluation, peptide substrate, read-out: PRMT6 IC50
[2] = single experiment or average of multiple experiments, read-out: PRMT6 biochemical evaluation (numerical)

Sequence of human PRMT6 (Q96LA8 with tags, fused parts or gaps): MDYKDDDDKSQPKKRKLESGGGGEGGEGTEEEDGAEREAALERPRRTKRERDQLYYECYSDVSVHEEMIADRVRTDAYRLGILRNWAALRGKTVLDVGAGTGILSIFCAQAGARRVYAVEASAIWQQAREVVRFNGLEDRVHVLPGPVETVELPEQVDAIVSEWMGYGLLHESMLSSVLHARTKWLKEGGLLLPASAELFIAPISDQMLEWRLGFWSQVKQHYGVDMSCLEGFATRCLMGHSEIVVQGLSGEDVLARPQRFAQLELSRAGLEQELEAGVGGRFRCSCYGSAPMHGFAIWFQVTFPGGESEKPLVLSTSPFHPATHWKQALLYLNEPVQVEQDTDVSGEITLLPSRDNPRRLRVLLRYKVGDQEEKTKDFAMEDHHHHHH

Compound	IC50 [1]	IC50 [2]	IC50	IC50 (PRMT6 biochemical evaluation (numerical), single experiment or average of multiple experiments)
CN(CCN)Cc1n[nH]c2ccc(OCc3ccccc3)cc12 [Compound 1B]	< 100 nM	9.44 nM		
CC(C)COc1ccc2[nH]nc(CN(C)CCN)c2c1 [Compound 2, N1-((5-iso-butoxy-1H-indazol-3-yl)methyl)-N1-methylethane-1,2-diamine]	101 to 1000 nM	113 nM		
CNCCN(C)Cc1nn(C)c2ccc(OCC(C)C)cc12 [Compound 3, N^1-((5-iso-butoxy-1-methyl-1H-indazol-3-yl)methyl)-N^1,N^2-dimethylethane-1,2-diamine]	101 to 1000 nM	514 nM		
CNCCN(C)Cc1n[nH]c2ccc(OCCOC)cc12 [Compound 5, N^1-((5-(2-methoxyethoxy)-1H-indazol-3-yl)methyl)-N^1,N^2-dimethylethane-1,2-diamine]	< 100 nM	84.8 nM		
CNCCN(C)Cc1n[nH]c2ccc(OCCCOC)cc12 [Compound 6]	< 100 nM	39.3 nM		
CNCCN(C)Cc1n[nH]c2ccc(OCCc3ccccc3)cc12 [Compound 7]	< 100 nM	6.78 nM		
CNCCN(C)Cc1n[nH]c2ccc(OCCC(C)C)cc12 [Compound 8]	< 100 nM	56 nM		
CNCCN(C)Cc1n[nH]c2ccc(OC(C)Cc3ccccc3)cc12 (stereo not shown) [Compound 9]	< 100 nM	13.9 nM		
CNCCN(C)Cc1n[nH]c2ccc(Oc3ccccc3)cc12 [Compound 10, N^1,N^2-dimethyl-N^1-((5-phenoxy-1H-indazol-3-yl)methyl)ethane-1,2-diamine]	101 to 1000 nM	125 nM		
CNCCN(C)Cc1n[nH]c2ccc(OC3CCCC3)cc12 [Compound 11]	< 100 nM	9.68 nM		
CNCCN(C)Cc1n[nH]c2ccc(OCc3ccccn3)cc12 [Compound 12]	< 100 nM	44.1 nM		
CNCCN(C)Cc1n[nH]c2ccc(OCc3ccc(C#N)cc3)cc12 [Compound 13]	< 100 nM	4.47 nM		
CNCCN(C)Cc1n[nH]c2ccc(OCc3cccc(C#N)c3)cc12 [Compound 14]	< 100 nM	5.29 nM		
CNCCN(C)Cc1n[nH]c2ccc(OCc3cc[nH]n3)cc12 [Compound 17]	< 100 nM	7.81 nM		
CNCCN(C)Cc1n[nH]c2ccc(OC3CCCCC3)cc12 [Compound 18]	< 100 nM	10.3 nM		
CNCCN(C)Cc1n[nH]c2ccc(OCC(C)c3ccccc3)cc12 (stereo not shown) [Compound 19]	< 100 nM	19.3 nM		
CNCCN(C)Cc1n[nH]c2ccc(OCc3ccn(C)n3)cc12 [Compound 20]	< 100 nM	37.4 nM		
CNCCN(C)Cc1n[nH]c2cccc(OCc3ccccc3)c12 [Compound 21]	< 100 nM	21.5 nM		
CNCCN(C)Cc1n[nH]c2ccc(Oc3cccc(OC)c3)cc12 [Compound 22]	< 100 nM	33.1 nM		
CNCCN(C)Cc1n[nH]c2ccc(OCc3ccc(C(C)=O)cc3)cc12 [Compound 23]	< 100 nM	96.6 nM		
CNCCN(C)Cc1n[nH]c2ccc(Oc3ccccc3OC)cc12 [Compound 24]	101 to 1000 nM	80.3 nM		
CNCCN(C)Cc1n[nH]c2ccc(OC3CCOC3)cc12 (stereo not shown) [Compound 25, N^1,N^2-dimethyl-N^1-((5-((tetrahydrofuran-3-yl)oxy)-1H-indazol-3-yl)methyl)ethane-1,2-diamine]	< 100 nM	5.05 nM		

Compound	IC50 [1]	IC50 [2]	IC50	IC50 (PRMT6 biochemical evaluation (numerical), single experiment or average of multiple experiments)
CNCCN(C)Cc1n[nH]c2ccc(Oc3cccc(C)c3)cc12 [Compound 26]	101 to 1000 nM	201 nM		
CNCCN(C)Cc1n[nH]c2ccc(Oc3cccc(Cl)c3)cc12 [Compound 27, N^1-((5-(3-chlorophenoxy)-1H-indazol-3-yl)methyl)-N^1,N^2-dimethylethane-1,2-diamine]	101 to 1000 nM	53.7 nM		
CNCCN(C)Cc1n[nH]c2ccc(Oc3cccc(C#N)c3)cc12 [Compound 28]	101 to 1000 nM	150 nM		
CNCCN(C)Cc1n[nH]c2ccc(OC3CCOCC3)cc12 [Compound 29, N^1,N^2-dimethyl-N^1-((5-((tetrahydro-2H-pyran-4-yl)oxy)-1H-indazol-3-yl)methyl)ethane-1,2-diamine]	101 to 1000 nM	178 nM		
CNCCN(C)Cc1n[nH]c2ccc(Oc3ccccc3Cl)cc12 [Compound 30]	101 to 1000 nM	131 nM		
CNCCN(C)Cc1n[nH]c2cccc(OCCC(C)C)c12 [Compound 31]	1010 to 3000 nM	135 nM		
CNCCN(C)Cc1nn(C)c2ccc(OCc3ccc(C#N)cc3)cc12 [Compound 32]	< 100 nM	156 nM		
CNCCN(C)Cc1n[nH]c2ccc(OCc3ccn(CC(C)C)n3)cc12 [Compound 33]	< 100 nM	1110 nM		
CNCCN(C)Cc1c2cc(OCc3ccc(C#N)cc3)ccc2nn1C(C)C [Compound 34]	3010 to 10000 nM	14.9 nM		
CNCCN(C)Cc1n[nH]c2ccc(OC)cc12 [Compound 35]	3010 to 10000 nM	35.7 nM		
CNCCN(C)Cc1n[nH]c2ccc(O)cc12 [Compound 36, 3-((methyl(2-(methylamino)ethyl)amino)methyl)-1H-indazol-5-ol]	1010 to 3000 nM	6670 nM		
CNCCN(C)Cc1n[nH]c2ccc(Oc3ccc(C#N)cc3)cc12 [Compound 37]	101 to 1000 nM	4840 nM		
CNCCN(C)Cc1nn(C2CCN(C(C)=O)CC2)c2ccc(OCc3ccc(C#N)cc3)cc12 [Compound 38]	101 to 1000 nM	1870 nM		
CNCCN(C)Cc1n[nH]c2ccc(Oc3ccc(C(F)(F)F)cc3)cc12 [Compound 39]	101 to 1000 nM	694 nM		
CNCCN(C)Cc1n[nH]c2cccc(OCCC(O)CO)c12 (stereo not shown) [Compound 40]	1010 to 3000 nM	223 nM		
CNCCN(C)Cc1n[nH]c2cccc(OCCCC(O)CO)c12 (stereo not shown) [Compound 41, 5-((3-((methyl(2-(methylamino)ethyl)amino)methyl)-1H-indazol-4-yl)oxy)pentane-1,2-diol]	1010 to 3000 nM	145 nM		
CNCCN(C)Cc1n[nH]c2ccc(C(C)C)cc12 [Compound 42, N^1-((5-isopropyl-1H-indazol-3-yl)methyl)-N^1,N^2-dimethylethane-1,2-diamine]	< 100 nM	2340 nM		
CNCCN(C)Cc1n[nH]c2ccc(N3CCC4(CCCCC4)CC3)cc12 [Compound 43, N^1-((5-(3-azaspiro[5.5]undecan-3-yl)-1H-indazol-3-yl)methyl)-N^1,N^2-dimethylethane-1,2-diamine]			< 100 nM	1800 nM
CNCCN(C)Cc1n[nH]c2ccc(C3CCOCC3)cc12 [Compound 44, N^1,N^2-dimethyl-N^1-((5-(tetrahydro-2H-pyran-4-yl)-1H-indazol-3-yl)methyl)ethane-1,2-diamine]	< 100 nM	72 nM		
CNCCN(C)Cc1n[nH]c2ccc(C3=CCOCC3)cc12 [Compound 45]	< 100 nM	58.1 nM		
CNCCN(C)Cc1n[nH]c2ccc(N3CCCCC3)cc12 [Compound 46, N^1,N^2-dimethyl-N^1-((5-(piperidin-1-yl)-1H-indazol-3-yl)methyl)ethane-1,2-diamine]	< 100 nM	40.6 nM		
CNCCN(C)Cc1n[nH]c2ccc(C3CCCCC3)cc12 [Compound 47, N^1-((5-cyclohexyl-1H-indazol-3-yl)methyl)-N^1,N^2-dimethylethane-1,2-diamine]	< 100 nM	74.3 nM		
